Data taken from patent publication US20080207527A1, “Bicyclic Compounds Which Inhibit Beta-Secretase Activity and Methods of Use Thereof” (CoMentis, Inc., priority 2004, published 2008).

What was measured:
memapsin 1 = biological target: T1, memapsin 1 (Homo sapiens, UniProt Q9Y5Z0); test: Inhibition of memapsin 1 beta-secretase activity (substrate peptide hydrolysis, MALDI-TOF); assay type: biochemical; conditions: pH 4.1, 37 degrees C., read-out: M1 Ki
T1 sequence (Q9Y5Z0 63-518): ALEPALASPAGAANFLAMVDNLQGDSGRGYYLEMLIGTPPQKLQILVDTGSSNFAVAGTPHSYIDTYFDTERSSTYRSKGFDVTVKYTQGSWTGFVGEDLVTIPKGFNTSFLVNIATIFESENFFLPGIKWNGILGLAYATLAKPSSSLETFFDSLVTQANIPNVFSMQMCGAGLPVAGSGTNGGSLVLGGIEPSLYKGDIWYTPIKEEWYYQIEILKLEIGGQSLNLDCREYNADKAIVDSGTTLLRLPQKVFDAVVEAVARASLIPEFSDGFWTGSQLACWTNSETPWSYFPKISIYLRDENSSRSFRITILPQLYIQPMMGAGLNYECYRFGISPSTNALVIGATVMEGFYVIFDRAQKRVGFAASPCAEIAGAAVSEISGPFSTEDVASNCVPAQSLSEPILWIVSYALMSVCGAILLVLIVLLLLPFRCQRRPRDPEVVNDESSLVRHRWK

memapsin 2 = memapsin 2 (Homo sapiens, UniProt P56817); test: Inhibition of memapsin 2 beta-secretase activity toward fluorogenic substrate FS-2; assay type: biochemical; conditions: pH 4, 37° C., 20 minutes pre-incubation, read-out: M2 Ki
Summary of the method: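 Enzyme pre-incubated with compound 20 min at pH 4, 37 °C, then fluorogenic substrate FS-2 added. Inhibition derived from rate of fluorescence increase from peptide hydrolysis.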

Aβ production = test: Cellular Aβ IC50 determination (Aβ40 sandwich ELISA); assay type: cell-based; conditions: Cricetulus griseus, Chinese hamster ovary cells over-expressing human APP695 with London and Swedish mutations, 24 h
Summary of the method: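 CHO cells over-expressing human APP695 (London and Swedish mutations) were treated 48 h after seeding with serially diluted compound, top final concentration near 4 μM (0.4% DMSO), for 24 h at 37 °C, 5% CO2. Aβ40 in medium was measured by sandwich ELISA; values relative to control were fit to a 4-parameter IC50 model.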

Cathepsin D = Cathepsin D (Homo sapiens, UniProt P07339); test: Inhibition of cathepsin D activity (substrate peptide hydrolysis, MALDI-TOF); assay type: biochemical; conditions: pH 4.1, 37 degrees C., read-out: Cath D Ki
Sequence of Cathepsin D (P07339 65-412, species assumed): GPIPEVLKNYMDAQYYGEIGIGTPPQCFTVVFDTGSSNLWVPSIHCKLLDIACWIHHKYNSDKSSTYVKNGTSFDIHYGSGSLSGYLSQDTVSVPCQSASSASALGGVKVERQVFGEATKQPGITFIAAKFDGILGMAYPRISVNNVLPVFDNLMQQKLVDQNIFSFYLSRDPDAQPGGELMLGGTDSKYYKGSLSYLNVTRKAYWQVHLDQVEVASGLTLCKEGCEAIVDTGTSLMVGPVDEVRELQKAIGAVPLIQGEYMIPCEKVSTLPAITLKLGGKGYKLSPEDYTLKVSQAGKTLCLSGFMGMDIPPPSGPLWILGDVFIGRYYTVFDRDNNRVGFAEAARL

Sequence of memapsin 2 (P56817 46-501): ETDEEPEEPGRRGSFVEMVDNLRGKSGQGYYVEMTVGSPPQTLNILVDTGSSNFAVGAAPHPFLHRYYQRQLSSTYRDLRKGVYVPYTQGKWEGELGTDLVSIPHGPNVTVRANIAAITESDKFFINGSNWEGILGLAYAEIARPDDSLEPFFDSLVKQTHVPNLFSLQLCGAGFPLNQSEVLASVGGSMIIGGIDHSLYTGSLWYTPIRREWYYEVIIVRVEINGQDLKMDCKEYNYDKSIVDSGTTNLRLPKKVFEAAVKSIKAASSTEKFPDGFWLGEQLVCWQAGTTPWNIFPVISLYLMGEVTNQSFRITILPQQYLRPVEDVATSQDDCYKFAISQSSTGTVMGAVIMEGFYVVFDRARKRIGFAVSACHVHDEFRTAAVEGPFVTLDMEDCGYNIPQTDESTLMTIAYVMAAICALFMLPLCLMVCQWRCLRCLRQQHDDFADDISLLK

Ki (memapsin 1) [nM] | Ki (memapsin 2) [nM] | IC50 (Aβ production) [nM] | Ki (Cathepsin D) [nM] | SMILES
< 405 | < 405 | > 20000 | < 405 | CC(C)CNC(=O)C(NC(=O)C(C)CC(O)C(CC(C)C)NC(=O)c1cncc(C(=O)N(C)Cc2ccccn2)c1)C(C)C (stereo not shown) [N3-(5-hydroxy-8-(1-(isobutylamino)-3-methyl-1-oxobutan-2-ylamino)-2,7-dimethyl-8-oxooctan-4-yl)-N5-methyl-N5-(pyridin-2-ylmethyl)pyridine-3,5-dicarboxamide]
> 5000 | < 405 | < 5000 | 405 to 2000 | CCC(NC(=O)C(C)CC(O)C(CC(C)C)NC(=O)c1cccc(C(=O)N(C)Cc2nc(C)cs2)c1)C(=O)NC(C)C (stereo not shown) [N1-(5-hydroxy-8-(1-(isopropylamino)-1-oxobutan-2-ylamino)-2,7-dimethyl-8-oxooctan-4-yl)-N3-methyl-N3-((4-methylthiazol-2-yl)methyl)isophthalamide]
< 405 | < 405 | < 5000 | 405 to 2000 | CC(C)CC(NC(=O)c1cc(C(=O)NC(C)c2ccccc2)cc(N(C)S(C)(=O)=O)c1)C(O)CC(C)C(=O)NC(C(=O)NCc1cccnc1)C(C)C (stereo not shown) [N1-(5-hydroxy-2,7-dimethyl-8-(3-methyl-1-oxo-1-(pyridin-3-ylmethylamino)butan-2-ylamino)-8-oxooctan-4-yl)-5-(N-methylmethylsulfonamido)-N3-(1-phenylethyl)isophthalamide]
< 405 | < 405 | 5000 to 10000 | < 405 | CC(=O)Nc1cc(C(=O)NC(C)c2ccccc2)cc(C(=O)NC(CC(C)C)C(O)CC(C)C(=O)NC(C(=O)NCC(C)C)C(C)C)c1 (stereo not shown) [5-acetamido-N1-(5-hydroxy-8-(1-(isobutylamino)-3-methyl-1-oxobutan-2-ylamino)-2,7-dimethyl-8-oxooctan-4-yl)-N3-(1-phenylethyl)isophthalamide]
< 405 | < 405 | > 20000 | > 5000 | CCc1csc(CN(C)C(=O)c2cccc(C(=O)NC(CC(C)C)C(O)CC(C)C(=O)NC(C(=O)NCC(C)C)C(C)C)c2)n1 (stereo not shown) [N1-((4-ethylthiazol-2-yl)methyl)-N3-(5-hydroxy-8-(1-(isobutylamino)-3-methyl-1-oxobutan-2-ylamino)-2,7-dimethyl-8-oxooctan-4-yl)-N1-methylisophthalamide]
< 405 | < 405 | 5000 to 10000 | < 405 | CCCN(CCC)C(=O)c1cccc(C(=O)NC(Cc2ccc(OC)cc2)C(O)CC(C)C(=O)NC(C(=O)NCC(C)C)C(C)C)c1 (stereo not shown) [N1-(3-hydroxy-6-(1-(isobutylamino)-3-methyl-1-oxobutan-2-ylamino)-1-(4-methoxyphenyl)-5-methyl-6-oxohexan-2-yl)-N3,N3-dipropylisophthalamide]
< 405 | < 405 | < 5000 | < 405 | CCCN(CCC)C(=O)c1cccc(C(=O)NC(Cc2cc(F)cc(F)c2)C(O)CC(C)C(=O)NCC(C)C)c1 (stereo not shown) [N1-(1-(3,5-difluorophenyl)-3-hydroxy-6-(isobutylamino)-5-methyl-6-oxohexan-2-yl)-N3,N3-dipropylisophthalamide]
405 to 2000 | < 405 | > 20000 | 405 to 2000 | CC(C)CNC(=O)C(NC(=O)C(C)CC(O)C(CC(C)C)NC(=O)c1cc(C(=O)NCc2cnccn2)cc(N(C)S(C)(=O)=O)c1)C(C)C (stereo not shown) [N1-(5-hydroxy-8-(1-(isobutylamino)-3-methyl-1-oxobutan-2-ylamino)-2,7-dimethyl-8-oxooctan-4-yl)-5-(N-methylmethylsulfonamido)-N3-(pyrazin-2-ylmethyl)isophthalamide]
405 to 2000 | < 405 | > 20000 | < 405 | CC(C)CNC(=O)C(NC(=O)C(C)CC(O)C(CC(C)C)NC(=O)c1cccc(C(=O)N(C)Cc2ccco2)c1)C(C)C (stereo not shown) [N1-(furan-2-ylmethyl)-N3-(5-hydroxy-8-(1-(isobutylamino)-3-methyl-1-oxobutan-2-ylamino)-2,7-dimethyl-8-oxooctan-4-yl)-N1-methylisophthalamide]
405 to 2000 | < 405 | < 5000 | 405 to 2000 | Cc1ccc(CNC(=O)c2cc(C(=O)NC(CC(C)C)C(O)CC(C)C(=O)NC(C(=O)NCC(C)C)C(C)C)cc(N(C)S(C)(=O)=O)c2)o1 (stereo not shown) [N1-(5-hydroxy-8-(1-(isobutylamino)-3-methyl-1-oxobutan-2-ylamino)-2,7-dimethyl-8-oxooctan-4-yl)-N3-((5-methylfuran-2-yl)methyl)-5-(N-methylmethylsulfonamido)isophthalamide]
